From patent US20250368623A1, “PYRIDAZINONE-DERIVED COMPOUNDS FOR THE MODULATION OF MYC AND FOR MEDICAL USES” (GENETIC INTELLIGENCE, INC, priority 2022, published 2025)

Key:
MYC protein = test: MYC HTRF assay, MYC protein level in human cell lines; format: cell-based; conditions: about 20 μM, 2-day incubation, human cell lines (e.g., A549, HepG2), vs DMSO-treated sample
Procedure: The MYC homogenous time-resolved fluorescence (HTRF) assay kit (CisBio/Perkin Elmer 63ADK053PEG) is used to quantify the level of MYC protein in human cell lines (e.g., A549, HepG2) following treatment with test compounds, according to the following protocol. Human cells cultured in DMEM-10% FBS media are seeded at 20,000 cells per well in a 96-well plate. After 1 day, the cells are treated with test compounds at a final concentration of about 20 μM. After a 2-day incubation period, the supernatant is removed from the wells and the HTRF assay is carried out according to the kit manufacturer's protocol. In brief, lysis buffer #4 is added to create cell lysates. 10 μL of cell lysate is added to 10 μL of premixed antibody solution (anti-human My c-Eu cryptate antibody and anti-human Myc-d2 antibody) prepared in detection buffer #3 in a 384-well low-volume white-walled plated. After 3 h of incubation, fluorescence readings are taken at the emission wavelengths of donor and acceptor fluorophores (620 nm and 665 nm respectively) using a HTRF-compatible plate reader. The ratio of acceptor and donor fluorescence emission signals for each sample is calculated by dividing the fluorescence signal at 665 nm by the signal at 620 nm, and further normalized by dividing with the concentration of total protein in that sample as determined by the BCA assay. The values so obtained are presented as a percentage of that of the no-compound, solvent only (DMSO)-treated samples. A lower percentage of MYC protein in a sample with respect to the DMSO-treated sample indicates greater percentage reduction in MYC protein level due to the test compound, and vice versa.

A549 = test: CCK-8 cell viability assay, A549; format: cell-based; conditions: Homo sapiens; CCK-8, A549, 2-day or 3-day incubation, cytotoxic effect
Procedure: The effect of test compounds on cell viability is determined using the CCK-8 assay kit (Dojindo CK04-1000) according to the following protocol. The human cancer cell lines (e.g., A549, HepG2, JeKo-1, MDA-MB-231, etc.) and non-cancer human cell lines (e.g., HEK-293, HaCaT, etc.), are seeded at 20,000 cells per well in a 96-well plate. After 1 day, the cells are treated with test compounds at various final concentrations (e.g., 10 nM, 31.6 nM, 100 nM, 316 nM, 1 μM, 3.16 μM, 10 μM, 20 μM, etc.). After a 2-day or 3-day incubation period, 10 μL of CCK-8 solution, which contains the WST-8 dye, is added to each well according to the kit manufacturer's protocol. After incubation for 1-4 hours, the absorbance at 450 nm is measured using a microplate reader. The absorbance at 450 nm measures the amount of WST-8 that is reduced to WST-8 formazan by cellular dehydrogenases, which is directly proportional to the number of living cells. The cytotoxic effect of test compounds at different concentrations is calculated by subtracting from 1 the ratio of absorbance of the compound-treated sample at 450 nm to that of the no-compound, solvent only (DMSO)-treated sample. […]

HepG2 = test: ApoTox-Glo Triplex assay (live-dead ratio), HepG2; format: cell-based; conditions: Homo sapiens, 48 h, HepG2, 2-day incubation
Procedure: The effects of test compounds on cell viability and apoptosis are determined using the ApoTox-Glo Triplex assay kit (Promega G6320) according to the following protocol. The human cancer cell line (e.g., HepG2) and a non-cancer human cell line (e.g., HEK-293), are seeded at 20,000 cells per well in a 96-well plate. After 1 day, the cells are treated with test compounds at various final concentrations (e.g., 10 nM, 31.6 nM, 100 nM, 316 nM, 1 μM, 3.16 μM, 10 μM, 20 μM, etc.). After a 2-day incubation period, the ApoTox-Glo Triplex assay is performed according to the kit manufacturer's protocol. […] After incubation for 30 minutes at 37° C., the fluorescence signal is measured at two wavelength sets (400Ex/505Em) and (485Ex/520Em) to assess live-cell protease activity and dead-cell protease activity respectively. […] After incubation for 30 minutes at room temperature, the luminescent signal is measured using a microplate reader. […]
The cytotoxic effect of test compounds according to the ApoTox-Glo Triplex assay is calculated as follows. The live-dead ratio is calculated by dividing the fluorescence signal for live-cell protease activity with the fluorescence signal for dead-cell protease activity. […]

[1] = system: caspase 3/7 activation in HepG2; test: ApoTox-Glo Triplex assay, caspase 3/7 activation in HepG2; format: cell-based, human; conditions: vs DMSO
Procedure: The effects of test compounds on cell viability and apoptosis are determined using the ApoTox-Glo Triplex assay kit (Promega G6320) according to the following protocol. The human cancer cell line (e.g., HepG2) and a non-cancer human cell line (e.g., HEK-293), are seeded at 20,000 cells per well in a 96-well plate. After 1 day, the cells are treated with test compounds at various final concentrations (e.g., 10 nM, 31.6 nM, 100 nM, 316 nM, 1 μM, 3.16 μM, 10 μM, 20 μM, etc.). After a 2-day incubation period, the ApoTox-Glo Triplex assay is performed according to the kit manufacturer's protocol. In brief, 20 μL of viability/cytotoxicity reagent containing both GF-AFC substrate (cell-permeant substrate to measure live-cell protease activity) and bis-AAF-R110 substrate (cell-impermeant substrate to measure dead-cell protease activity) is added to each sample, and briefly mixed by orbital shaking (300-500 rpm for ˜30 seconds). After incubation for 30 minutes at 37° C., the fluorescence signal is measured at two wavelength sets (400Ex/505Em) and (485Ex/520Em) to assess live-cell protease activity and dead-cell protease activity respectively. Following the measurement of the live-cell and dead-cell protease activities, 25 μl of Caspase-Glo 3/7 Reagent containing a luminogenic DEVD-peptide substrate for caspase-3/7 and thermostable luciferase is added to each sample, and briefly mixed by orbital shaking (1300-1500 rpm for ˜30 seconds). After incubation for 30 minutes at room temperature, the luminescent signal is measured using a microplate reader. The luminescent signal directly correlates with caspase-3/7 activity, which is a key indicator of apoptosis.
The fold-change of caspase 3/7 activation is calculated by dividing the luminescence signal of the compound-treated sample with that of the no-compound, solvent only (DMSO)-treated sample.

For `Cc1nc(C)c(-c2ccc(=O)n(CC3CCN(c4ncnc5ncccc45)CC3)n2)s1` [6-(2,4-dimethylthiazol-5-yl)-2-((1-(pyrido[2,3-d]pyrimidin-4-yl)piperidin-4-yl)methyl)pyridazin-3(2H)-one], the “% reduction of MYC protein” value (MYC protein) was 72%, the IC50 (A549) was 1300 nM and the IC50 (HepG2) was 100 nM. The “Fold-change of caspase 3/7 activation” value ([1]; HepG2, compound concentration 10 nM) was 1.245, the “Fold-change of caspase 3/7 activation” value ([1]; HepG2, compound concentration 31.6 nM) was 1.204 and the “Fold-change of caspase 3/7 activation” value ([1]; HepG2, compound concentration 100 nM) was 0.853. For the same molecule, the “Fold-change of caspase 3/7 activation” value ([1]; HepG2, compound concentration 316 nM) was 0.586, the “Fold-change of caspase 3/7 activation” value ([1]; HepG2, compound concentration 1000 nM) was 0.420 and the “Fold-change of caspase 3/7 activation” value ([1]; HepG2, compound concentration 3160 nM) was 0.371. The “Fold-change of caspase 3/7 activation” value ([1]; HepG2, compound concentration 10000 nM) was 0.308 and the “Fold-change of caspase 3/7 activation” value ([1]; HepG2, compound concentration 20000 nM) was 0.280.
